PMC4500996, “Ortho-methylated 3-hydroxypyridines hinder hen egg-white lysozyme fibrillogenesis” (Scientific Reports, 2015)

Target: T1, hen egg-white lysozyme (HEWL) (Gallus gallus, UniProt P00698)
T1 construct: gene LYZ
Assay: intrinsic Trp fluorescence quenching titration ([…] nm), two-site fit in DynaFit
Type: binding
Settings: pH 2.0, 37 °C, 2 mM sodium chloroacetate, 10 µM HEWL; stronger of two independent sites; cationic ligand

T1 sequence (P00698 19-147): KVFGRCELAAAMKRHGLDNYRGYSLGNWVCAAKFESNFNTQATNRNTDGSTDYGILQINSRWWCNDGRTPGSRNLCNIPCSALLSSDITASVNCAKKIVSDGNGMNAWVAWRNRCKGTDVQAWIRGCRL

SMILES	Ka (M^-1).10^-3( ^a)
Cc1ncccc1O [2 m-3HP, 3-hydroxy-2-methylpyridine]	(9.3 ± 0.2)·10^3
Cc1ccc(O)c(C)n1 [2,6dm-3HP, 3-hydroxy-2,6-dimethylpyridine]	(8.9 ± 0.2)·10^3
Cc1ccc(O)cn1 [6 m-3HP, 3-hydroxy-6-methylpyridine]	(7.4 ± 0.1)·10^3
